According to patent US10485235B2, “Aryloxypyrimidinyl ethers as herbicides” (FMC Corporation, priority 2015, dated 2019):

How the values were obtained:
Type in all cases: in vivo
[1] = tested on: pigweed (Amaranthus retroflexus); test: Test A preemergence, pigweed; settings: Preemergence, 0 to 100 scale (0 no effect, 100 complete control)
In short: (§1)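 Plants grown in pots of loam blended with sand were treated either before emergence, via directed soil spray, or after emergence at the one- to two-leaf stage. Following about 10 days in the greenhouse, each treatment was visually compared with untreated controls and rated from 0 (no effect) to 100 (complete control).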

[2] = tested on: ryegrass, Italian (Italian ryegrass, Lolium multiflorum); test: Test A postemergence, Italian ryegrass; settings: postemergence, 0 to 100 scale, 0 is no effect, 100 is complete control, approximately 10 days
In short: as §1

[3] = tested on: pigweed (Amaranthus retroflexus); test: Test A postemergence, pigweed; settings: postemergence, 0 to 100 scale, 0 is no effect, 100 is complete control, approximately 10 days
In short: as §1

[4] = tested on: barnyardgrass (Echinochloa crus-galli); test: Test A postemergence, barnyardgrass; settings: postemergence, 0 to 100 scale, 0 is no effect, 100 is complete control, approximately 10 days
In short: as §1

[5] = tested on: ducksalad (Heteranthera limosa); test: Test B flooded paddy test, ducksalad; settings: 250 g ai/ha, Flood; visual rating after 13 to 15 days; scale 0 to 100, 0 is no effect, 100 is complete control
In short: (§2)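 Seedlings at the 2-leaf stage are flooded to 3 cm and treated via the paddy water. Greenhouse plants are compared with controls after 13 to 15 days and given a 0 (no effect) to 100 (complete control) rating.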

[6] = tested on: ryegrass, Italian (Italian ryegrass, Lolium multiflorum); test: Test A preemergence, Italian ryegrass; settings: Preemergence, 0 to 100 scale (0 no effect, 100 complete control)
In short: as §1

[7] = tested on: foxtail, giant (giant foxtail, Setaria faberii); test: Test A preemergence, giant foxtail; settings: Preemergence, 0 to 100 scale (0 no effect, 100 complete control)
In short: as §1

[8] = tested on: wheat (Triticum aestivum); test: Test A postemergence, wheat; settings: postemergence, 0 to 100 scale, 0 is no effect, 100 is complete control, approximately 10 days
In short: as §1

[9] = tested on: rice (Oryza sativa); test: Test B flooded paddy test, rice; settings: 250 g ai/ha, Flood; visual rating after 13 to 15 days; scale 0 to 100, 0 is no effect, 100 is complete control
In short: as §2

[10] = tested on: ragweed (common ragweed, Ambrosia elatior); test: Test A preemergence, ragweed; settings: Preemergence, 0 to 100 scale (0 no effect, 100 complete control)
In short: as §1

[11] = tested on: foxtail, giant (giant foxtail, Setaria faberii); test: Test A postemergence, giant foxtail; settings: postemergence, 0 to 100 scale, 0 is no effect, 100 is complete control, approximately 10 days
In short: as §1

[12] = tested on: blackgrass (Alopecurus myosuroides); test: Test A postemergence, blackgrass; settings: postemergence, 0 to 100 scale, 0 is no effect, 100 is complete control, approximately 10 days
In short: as §1

[13] = tested on: corn (Zea mays); test: Test A postemergence, corn; settings: postemergence, 0 to 100 scale, 0 is no effect, 100 is complete control, approximately 10 days
In short: as §1

[14] = tested on: kochia (Kochia scoparia); test: Test A preemergence, kochia; settings: Preemergence, 0 to 100 scale (0 no effect, 100 complete control)
In short: as §1

[15] = tested on: sedge, umbrella (small-flower umbrella sedge, Cyperus difformis); test: Test B flooded paddy test, umbrella sedge; settings: 250 g ai/ha, Flood; visual rating after 13 to 15 days; scale 0 to 100, 0 is no effect, 100 is complete control
In short: as §2

[16] = tested on: barnyardgrass (Echinochloa crus-galli); test: Test B flooded paddy test, barnyardgrass; settings: 250 g ai/ha, Flood; visual rating after 13 to 15 days; scale 0 to 100, 0 is no effect, 100 is complete control
In short: as §2

[17] = tested on: ragweed (common ragweed, Ambrosia elatior); test: Test A postemergence, ragweed; settings: postemergence, 0 to 100 scale, 0 is no effect, 100 is complete control, approximately 10 days
In short: as §1

[18] = tested on: galium (catchweed bedstraw, Galium aparine); test: Test A postemergence, galium; settings: postemergence, 0 to 100 scale, 0 is no effect, 100 is complete control, approximately 10 days
In short: as §1

[19] = tested on: barnyardgrass (Echinochloa crus-galli); test: Test A preemergence, barnyardgrass; settings: Preemergence, 0 to 100 scale (0 no effect, 100 complete control)
In short: as §1

[20] = tested on: kochia (Kochia scoparia); test: Test A postemergence, kochia; settings: postemergence, 0 to 100 scale, 0 is no effect, 100 is complete control, approximately 10 days
In short: as §1

Cc1cccc(Oc2ncc(Cl)cn2)c1OCCCF [Compound 57]
Plant response rating, Pigweed ([1]; 31 g ai/ha): 0
Plant response rating, Pigweed ([1]; 125 g ai/ha): 60
Plant response rating, Ryegrass, Italian ([2]; 31 g ai/ha): 0
Plant response rating, Ryegrass, Italian ([2]; 125 g ai/ha): 0
Plant response rating, Pigweed ([3]; 31 g ai/ha): 10
Plant response rating, Pigweed ([3]; 125 g ai/ha): 20
Plant response rating, Barnyardgrass ([4]; 31 g ai/ha): 0
Plant response rating, Barnyardgrass ([4]; 125 g ai/ha): 0
Plant response rating, Ducksalad [5]: 70
Plant response rating, Ryegrass, Italian ([6]; 31 g ai/ha): 0
Plant response rating, Ryegrass, Italian ([6]; 125 g ai/ha): 0
Plant response rating, Foxtail, Giant ([7]; 31 g ai/ha): 0
Plant response rating, Foxtail, Giant ([7]; 125 g ai/ha): 30
Plant response rating, Wheat ([8]; 31 g ai/ha): 0
Plant response rating, Wheat ([8]; 125 g ai/ha): 0
Plant response rating, Rice [9]: 0
Plant response rating, Ragweed ([10]; 31 g ai/ha): 0
Plant response rating, Ragweed ([10]; 125 g ai/ha): 0
Plant response rating, Foxtail, Giant ([11]; 31 g ai/ha): 0
Plant response rating, Foxtail, Giant ([11]; 125 g ai/ha): 10
Plant response rating, Blackgrass ([12]; 31 g ai/ha): 0
Plant response rating, Blackgrass ([12]; 125 g ai/ha): 0
Plant response rating, Corn ([13]; 31 g ai/ha): 0
Plant response rating, Corn ([13]; 125 g ai/ha): 10
Plant response rating, Kochia ([14]; 31 g ai/ha): 0
Plant response rating, Kochia ([14]; 125 g ai/ha): 20
Plant response rating, Sedge, Umbrella [15]: 30
Plant response rating, Barnyardgrass [16]: 0
Plant response rating, Ragweed ([17]; 31 g ai/ha): 0
Plant response rating, Ragweed ([17]; 125 g ai/ha): 0
Plant response rating, Galium ([18]; 31 g ai/ha): 0
Plant response rating, Galium ([18]; 125 g ai/ha): 0
Plant response rating, Barnyardgrass ([19]; 31 g ai/ha): 0
Plant response rating, Barnyardgrass ([19]; 125 g ai/ha): 20
Plant response rating, Kochia ([20]; 31 g ai/ha): 0
Plant response rating, Kochia ([20]; 125 g ai/ha): 20

FC(F)(F)CCCOc1c(I)cccc1Oc1ncc(Cl)cn1 [Compound 60]
Plant response rating, Pigweed ([1]; 31 g ai/ha): 70
Plant response rating, Pigweed ([1]; 125 g ai/ha): 100
Plant response rating, Ryegrass, Italian ([2]; 31 g ai/ha): 0
Plant response rating, Ryegrass, Italian ([2]; 125 g ai/ha): 70
Plant response rating, Pigweed ([3]; 31 g ai/ha): 90
Plant response rating, Pigweed ([3]; 125 g ai/ha): 90
Plant response rating, Barnyardgrass ([4]; 31 g ai/ha): 30
Plant response rating, Barnyardgrass ([4]; 125 g ai/ha): 100
Plant response rating, Ducksalad [5]: 100
Plant response rating, Ryegrass, Italian ([6]; 31 g ai/ha): 0
Plant response rating, Ryegrass, Italian ([6]; 125 g ai/ha): 90
Plant response rating, Foxtail, Giant ([7]; 31 g ai/ha): 90
Plant response rating, Foxtail, Giant ([7]; 125 g ai/ha): 90
Plant response rating, Wheat ([8]; 31 g ai/ha): 0
Plant response rating, Wheat ([8]; 125 g ai/ha): 20
Plant response rating, Rice [9]: 25
Plant response rating, Ragweed ([10]; 31 g ai/ha): 0
Plant response rating, Ragweed ([10]; 125 g ai/ha): 0
Plant response rating, Foxtail, Giant ([11]; 31 g ai/ha): 30
Plant response rating, Foxtail, Giant ([11]; 125 g ai/ha): 80
Plant response rating, Blackgrass ([12]; 31 g ai/ha): 30
Plant response rating, Blackgrass ([12]; 125 g ai/ha): 50
Plant response rating, Corn ([13]; 31 g ai/ha): 30
Plant response rating, Corn ([13]; 125 g ai/ha): 30
Plant response rating, Kochia ([14]; 31 g ai/ha): 30
Plant response rating, Kochia ([14]; 125 g ai/ha): 40
Plant response rating, Sedge, Umbrella [15]: 95
Plant response rating, Barnyardgrass [16]: 20
Plant response rating, Ragweed ([17]; 31 g ai/ha): 0
Plant response rating, Ragweed ([17]; 125 g ai/ha): 30
Plant response rating, Galium ([18]; 31 g ai/ha): 70
Plant response rating, Galium ([18]; 125 g ai/ha): 100
Plant response rating, Barnyardgrass ([19]; 31 g ai/ha): 20
Plant response rating, Barnyardgrass ([19]; 125 g ai/ha): 80
Plant response rating, Kochia ([20]; 31 g ai/ha): 90
Plant response rating, Kochia ([20]; 125 g ai/ha): 90
